Results published in the supplement of paper PMC8960247.
Where a name gives a salt, the structure may show the parent alone. ± gives the standard error.

Assays:
621-102 (TSC2-deficient) = assay: relative viability vs DMSO; higher = less cytotoxic; details: serum: 10% FBS, 72 h
621-103 (TSC2-rescued) = assay: as above; details: serum: 10% FBS, 72 h
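Note: immortalized renal angiomyolipoma cells stably carrying empty vector or TSC2, dosed in 384-well plates in DMEM, viability normalized to vehicle-treated wells within each plate.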

Row | SMILES | relative viability (621-102 (TSC2-deficient); 0.0001 µM) | relative viability (621-102 (TSC2-deficient); 0.001 µM) | relative viability (621-102 (TSC2-deficient); 0.01 µM) | relative viability (621-102 (TSC2-deficient); 0.1 µM) | relative viability (621-102 (TSC2-deficient); 1 µM) | relative viability (621-102 (TSC2-deficient); 10 µM) | relative viability (621-103 (TSC2-rescued); 0.0001 µM) | relative viability (621-103 (TSC2-rescued); 0.001 µM) | relative viability (621-103 (TSC2-rescued); 0.01 µM) | relative viability (621-103 (TSC2-rescued); 0.1 µM) | relative viability (621-103 (TSC2-rescued); 1 µM) | relative viability (621-103 (TSC2-rescued); 10 µM)
1 | CC1(C)CCC(c2ccc(Cl)cc2)=C(CN2CCN(c3ccc(C(=O)NS(=O)(=O)c4ccc(N[C@H](CCN5CCOCC5)CSc5ccccc5)c(S(=O)(=O)C(F)(F)F)c4)cc3)CC2)C1 [ABT-263 (Navitoclax)] | 114 ± 3.6% | 123 ± 7.2% | 116 ± 4.2% | 104 ± 3.3% | 118.5 ± 0.83% | 68.4 ± 0.82% | 100.9 ± 0.9% | 98.3 ± 2.4% | 98 ± 1.2% | 98.6 ± 2% | 97.65 ± 0.41% | 55.33 ± 0.17%
2 | Cc1cc(C(C)Nc2ccccc2)c2nc(N3CCOCC3)cc(=O)n2c1 (stereo unspecified) [TGX-221] | 94.1 ± 1.7% | 106 ± 7.4% | 114 ± 3.3% | 112 ± 3.6% | 114 ± 4% | 101 ± 1.8% | 98.3 ± 0.45% | 98.8 ± 0.21% | 97.7 ± 2% | 98.8 ± 1.6% | 99.4 ± 1.5% | 102 ± 1.8%
3 | COc1ccc2c3n(c(=NC(=O)c4cccnc4)nc2c1OC)CCN3 [PIK-90] | 85.1 ± 3.9% | 107 ± 4.7% | 110 ± 2.5% | 112 ± 1.5% | 110 ± 1.3% | 96.7 ± 1.5% | 99 ± 1.5% | 99.75 ± 0.35% | 97.73 ± 0.84% | 97.82 ± 0.96% | 97.97 ± 0.66% | 73.4 ± 6.5%
4 | Oc1c2ccccc2c2c3c(cccc13)N=N2 | 104.7 ± 0.13% | 103 ± 4.5% | 105 ± 1.1% | 103 ± 1.3% | 102 ± 4% | 83.3 ± 2.2% | 100.6 ± 0.42% | 101 ± 1.9% | 101.1 ± 0.35% | 100.1 ± 0.67% | 98.2 ± 1.6% | 95.2 ± 2.7%
5 | COc1cc([C@@H]2c3cc4c(cc3[C@@H](O[C@@H]3O[C@@H]5CO[C@@H](C)O[C@H]5[C@H](O)[C@H]3O)[C@H]3COC(=O)[C@H]23)OCO4)cc(OC)c1O [Etoposide (Etopophos)] | 109.8 ± 0.44% | 108.1 ± 0.98% | 114 ± 3.7% | 104 ± 2.5% | 81.3 ± 5.1% | 54.6 ± 2.9% | 99.77 ± 0.28% | 98.19 ± 0.16% | 99.6 ± 1.2% | 98.7 ± 1% | 91.5 ± 2.3% | 55.6 ± 0.8%
6 | CN1CC[C@H](c2c(O)cc(O)c3c(=O)cc(-c4ccccc4Cl)oc23)[C@H](O)C1 [Flavopiridol (Alvocidib)] | 104 ± 1.3% | 104.1 ± 0.59% | 95.5 ± 5% | 45.4 ± 1.9% | 11.3 ± 0.76% | 11.7 ± 0.13% | 103 ± 4.3% | 100.4 ± 0.89% | 102.2 ± 0.86% | 55.26 ± 0.43% | 17.8 ± 0.22% | 21.81 ± 0.19%
7 | O=c1cc(-c2ccc(O)c(O)c2)oc2cc(O)cc(O)c12 [Luteolin (Luteolol)] | 108.1 ± 0.74% | 104 ± 2.9% | 104.7 ± 0.25% | 100 ± 3% | 105.3 ± 0.74% | 101.9 ± 0.18% | 107.6 ± 0.4% | 103 ± 3.2% | 102 ± 1.6% | 100 ± 3.7% | 108 ± 4.5% | 92.4 ± 2%
8 | COc1cc2c(cc1Cc1cccc(Cl)c1F)c(=O)c(C(=O)O)cn2[C@H](CO)C(C)C [Elvitegravir] | 96.63 ± 0.78% | 107.1 ± 0.31% | 105 ± 3.3% | 106 ± 1.4% | 110 ± 3% | 99.7 ± 3.7% | 101 ± 1.1% | 102 ± 1.9% | 98.96 ± 0.48% | 98.96 ± 0.9% | 101.1 ± 1% | 99.17 ± 0.59%
9 | O=C(NOCC(O)CO)c1cc(Br)c(F)c(F)c1Nc1ccc(I)cc1F (stereo unspecified) | 105 ± 4.9% | 99.7 ± 2.8% | 105.5 ± 0.56% | 106 ± 1.1% | 100 ± 1.4% | 93.7 ± 1.3% | 96.8 ± 0.31% | 95 ± 3% | 98.9 ± 1.2% | 93.54 ± 0.87% | 93.44 ± 0.33% | 74.3 ± 5.1%
10 | CCOc1nc2cccc(C(=O)OC(C)OC(=O)OC3CCCCC3)c2n1Cc1ccc(-c2ccccc2-c2nn[nH]n2)cc1 (stereo unspecified) [Candesartan cilexetil] | 106.1 ± 0.3% | 97.7 ± 2.1% | 102 ± 2.7% | 106 ± 1.2% | 96.9 ± 2.4% | 97.55 ± 0.87% | 96.526 ± 0.053% | 95.8 ± 3.5% | 94.03 ± 0.16% | 97.8 ± 1.6% | 99.8 ± 5.4% | 94.55 ± 0.33%
11 | OC(CNCC(O)C1CCc2cc(F)ccc2O1)C1CCc2cc(F)ccc2O1 (stereo unspecified) [Nebivolol HCl] | 81.745 ± 0.015% | 103 ± 2.9% | 106 ± 1.1% | 118 ± 7.1% | 106 ± 2.9% | 77.1 ± 11% | 86.6 ± 8.6% | 116.1 ± 0.89% | 114.3 ± 0.92% | 120 ± 2.8% | 108 ± 4.2% | 36.4 ± 5.6%
12 | CCc1nc(N)nc(N)c1-c1ccc(Cl)cc1 [Pyrimethamine] | 99.7 ± 4.9% | 108.7 ± 0.4% | 95.6 ± 3.3% | 95.7 ± 2.5% | 100 ± 1.8% | 93.14 ± 0.75% | 105 ± 2% | 105.5 ± 0.94% | 104 ± 3.5% | 101 ± 2% | 104.3 ± 0.2% | 102 ± 4.4%
13 | CC(C)(Oc1ccc(C2CC2(Cl)Cl)cc1)C(=O)O (stereo unspecified) [Ciprofibrate] | 105.1 ± 0.47% | 100 ± 4.4% | 103.6 ± 0.33% | 93.48 ± 0.86% | 97 ± 5.4% | 102 ± 1.7% | 107 ± 2.5% | 102 ± 3.9% | 98.7 ± 5% | 109.4 ± 0.22% | 103.1 ± 0.95% | 102 ± 1.3%
14 | CN1CCc2c(c3ccccc3n2Cc2ccc(C(=O)NO)cc2)C1 [Tubastatin A HCl] | 73.7 ± 1.7% | 91.6 ± 2.8% | 85.5 ± 1% | 90.1 ± 3.6% | 82.6 ± 2.3% | 75.4 ± 2.7% | 101 ± 2.1% | 102 ± 2.5% | 101 ± 3.4% | 100 ± 2.9% | 98.48 ± 0.54% | 90.6 ± 1.5%
15 | CC(C)(C)c1[nH]cnc1/C=c1\[nH]c(=O)/c(=C/c2ccccc2)[nH]c1=O [NPI-2358] | 88.4 ± 2.1% | 50.4 ± 2% | 55.9 ± 1.8% | 42 ± 0.5% | 36.5 ± 2% | 41.3 ± 2.3% | 86.9 ± 4.1% | 45.4 ± 0.88% | 62 ± 1.6% | 36.2 ± 0.99% | 32.4 ± 0.92% | 33.1 ± 0.41%
16 | COc1ccc(-c2nc3cc(C4=NNC(=O)CC4C)ccc3[nH]2)cc1 (stereo unspecified) [Pimobendan (Vetmedin)] | 105.47 ± 0.018% | 106 ± 0.73% | 103 ± 2.5% | 108 ± 3.9% | 101 ± 2.5% | 87.99 ± 0.68% | 104 ± 2.3% | 101.7 ± 0.57% | 102.2 ± 0.15% | 100 ± 3.2% | 99.3 ± 3.6% | 84.13 ± 0.39%
17 | O=C(O[C@H]1C[C@H]2CC[C@@H](C1)[N+]21CCCC1)C(O)(c1ccccc1)c1ccccc1 [Trospium chloride (Sanctura)] | 116 ± 2.6% | 99.2 ± 1.8% | 110 ± 5.9% | 95.4 ± 6.1% | 112 ± 5% | 110 ± 3.5% | 82.71 ± 0.81% | 91.5 ± 2.9% | 93.15 ± 0.86% | 102 ± 3.1% | 98.6 ± 5.3% | 92.1 ± 4.1%
18 | Clc1ccc(C2(c3ccc(-c4cn[nH]c4)cc3)CCNCC2)cc1 [AT7867] | 98.8 ± 5.5% | 102 ± 6.2% | 105 ± 4.8% | 95.8 ± 1.7% | 85.23 ± 0.13% | 49.2 ± 3.2% | 89.1 ± 5.1% | 90.1 ± 2.4% | 90.2 ± 4.9% | 94.3 ± 6.7% | 75.1 ± 5.7% | 18.5 ± 2.6%
